From the NIST ThermoML archive (doi:10.1016/j.jct.2012.08.021)

Assay: xn = mol fraction of the nth substance listed
Conditions: 101 kPa, Liquid, Vibrating tube method

NCCO [2-aminoethan-1-ol] + C[S+](C)[O-]
Conditions	mass density [kg/m3]
293.15 K, x1 = 0.1002	1092.35
293.15 K, x1 = 0.2	1084.23
293.15 K, x1 = 0.2999	1076.52
293.15 K, x1 = 0.4002	1068.58
293.15 K, x1 = 0.5002	1060.65
293.15 K, x1 = 0.5999	1052.61
293.15 K, x1 = 0.7002	1044.32
293.15 K, x1 = 0.8001	1035.24
293.15 K, x1 = 0.8998	1026.1
293.16 K, x1 = 1	1016.34
303.14 K, x1 = 0.2999	1066.93
303.14 K, x1 = 1	1008.4
303.15 K, x1 = 0.1002	1082.48
303.15 K, x1 = 0.4002	1059.15
303.15 K, x1 = 0.5002	1051.41
303.15 K, x1 = 0.5999	1043.58
303.15 K, x1 = 0.7002	1035.51
303.15 K, x1 = 0.8001	1026.69
303.15 K, x1 = 0.8998	1017.83
303.16 K, x1 = 0.2	1074.46
313.14 K, x1 = 0.1002	1072.61
313.14 K, x1 = 0.2999	1057.33
313.14 K, x1 = 1	1000.41
313.15 K, x1 = 0.2	1064.73
313.15 K, x1 = 0.4002	1049.71
313.15 K, x1 = 0.5002	1042.15
313.15 K, x1 = 0.5999	1034.52
313.15 K, x1 = 0.7002	1026.7
313.15 K, x1 = 0.8001	1018.12
313.15 K, x1 = 0.8998	1009.56
323.14 K, x1 = 0.1002	1062.74
323.15 K, x1 = 0.2999	1047.72
323.15 K, x1 = 0.4002	1040.26
323.15 K, x1 = 0.5002	1032.85
323.15 K, x1 = 0.5999	1025.42
323.15 K, x1 = 0.7002	1017.83
323.15 K, x1 = 0.8001	1009.5
323.15 K, x1 = 0.8998	1001.23
323.15 K, x1 = 1	992.384
323.16 K, x1 = 0.2	1054.96
333.14 K, x1 = 0.2999	1038.11
333.14 K, x1 = 1	984.302
333.15 K, x1 = 0.1002	1052.86
333.15 K, x1 = 0.4002	1030.78
333.15 K, x1 = 0.5002	1023.56
333.15 K, x1 = 0.7002	1008.93
333.15 K, x1 = 0.8001	1000.84
333.15 K, x1 = 0.8998	992.847
333.16 K, x1 = 0.2	1045.22
333.16 K, x1 = 0.5999	1016.3
343.14 K, x1 = 1	976.141
343.15 K, x1 = 0.1002	1042.97
343.15 K, x1 = 0.2	1035.46
343.15 K, x1 = 0.2999	1028.47
343.15 K, x1 = 0.4002	1021.28
343.15 K, x1 = 0.5002	1014.22
343.15 K, x1 = 0.5999	1007.15
343.15 K, x1 = 0.7002	999.999
343.15 K, x1 = 0.8001	992.114
343.15 K, x1 = 0.8998	984.393
353.14 K, x1 = 0.1002	1033.05
353.14 K, x1 = 0.2999	1018.81
353.14 K, x1 = 0.4002	1011.75
353.14 K, x1 = 0.5002	1004.84
353.14 K, x1 = 0.7002	990.992
353.14 K, x1 = 0.8001	983.32
353.14 K, x1 = 0.8998	975.863
353.14 K, x1 = 1	967.893
353.15 K, x1 = 0.2	1025.66
353.15 K, x1 = 0.5999	997.944
363.14 K, x1 = 0.1002	1023.1
363.14 K, x1 = 0.2	1015.84
363.14 K, x1 = 0.5002	995.408
363.14 K, x1 = 0.5999	988.672
363.14 K, x1 = 0.7002	981.91
363.14 K, x1 = 0.8001	974.446
363.14 K, x1 = 0.8998	967.234
363.15 K, x1 = 0.2999	1009.1
363.15 K, x1 = 0.4002	1002.17
363.15 K, x1 = 1	959.536

CN(CCO)CCO [N-methyldiethanolamine] + C[S+](C)[O-]
Conditions	mass density [kg/m3]
293.14 K, x1 = 0.5998	1053.8
293.15 K, x1 = 0.1002	1089.57
293.15 K, x1 = 0.2	1079.89
293.15 K, x1 = 0.3001	1071.58
293.15 K, x1 = 0.4001	1064.66
293.15 K, x1 = 0.5002	1058.74
293.15 K, x1 = 0.7002	1049.58
293.15 K, x1 = 0.7998	1046.1
293.15 K, x1 = 0.8998	1043.37
293.15 K, x1 = 1	1040.6
303.14 K, x1 = 0.4001	1056.1
303.14 K, x1 = 0.5998	1045.65
303.15 K, x1 = 0.1002	1080.03
303.15 K, x1 = 0.2	1070.75
303.15 K, x1 = 0.3001	1062.76
303.15 K, x1 = 0.5002	1050.39
303.15 K, x1 = 0.7002	1041.61
303.15 K, x1 = 0.7998	1038.28
303.15 K, x1 = 0.8998	1035.67
303.15 K, x1 = 1	1033.02
313.14 K, x1 = 0.4001	1047.54
313.14 K, x1 = 0.5998	1037.49
313.15 K, x1 = 0.1002	1070.49
313.15 K, x1 = 0.2	1061.61
313.15 K, x1 = 0.3001	1053.94
313.15 K, x1 = 0.5002	1042.06
313.15 K, x1 = 0.7002	1033.61
313.15 K, x1 = 0.7998	1030.42
313.15 K, x1 = 0.8998	1027.95
313.15 K, x1 = 1	1025.4
323.14 K, x1 = 0.4001	1038.99
323.14 K, x1 = 0.5998	1029.33
323.15 K, x1 = 0.1002	1060.95
323.15 K, x1 = 0.2	1052.47
323.15 K, x1 = 0.3001	1045.11
323.15 K, x1 = 0.5002	1033.71
323.15 K, x1 = 0.7002	1025.6
323.15 K, x1 = 0.7998	1022.53
323.15 K, x1 = 0.8998	1020.18
323.15 K, x1 = 1	1017.74
333.14 K, x1 = 0.4001	1030.43
333.14 K, x1 = 0.5998	1021.15
333.15 K, x1 = 0.1002	1051.41
333.15 K, x1 = 0.2	1043.33
333.15 K, x1 = 0.3001	1036.29
333.15 K, x1 = 0.5002	1025.37
333.15 K, x1 = 0.7002	1017.56
333.15 K, x1 = 0.7998	1014.63
333.15 K, x1 = 0.8998	1012.37
333.15 K, x1 = 1	1010.03
343.14 K, x1 = 0.4001	1021.86
343.14 K, x1 = 0.5002	1017.01
343.14 K, x1 = 0.5998	1012.95
343.15 K, x1 = 0.1002	1041.86
343.15 K, x1 = 0.2	1034.18
343.15 K, x1 = 0.3001	1027.48
343.15 K, x1 = 0.7002	1009.51
343.15 K, x1 = 0.7998	1006.67
343.15 K, x1 = 0.8998	1004.51
343.15 K, x1 = 1	1002.25
353.14 K, x1 = 0.1002	1032.29
353.14 K, x1 = 0.4001	1013.27
353.14 K, x1 = 0.5002	1008.63
353.14 K, x1 = 0.5998	1004.72
353.14 K, x1 = 0.8998	996.587
353.14 K, x1 = 1	994.404
353.15 K, x1 = 0.2	1025.01
353.15 K, x1 = 0.7002	1001.4
353.16 K, x1 = 0.3001	1018.62
353.16 K, x1 = 0.7998	998.661
363.14 K, x1 = 0.1002	1022.7
363.14 K, x1 = 0.2	1015.82
363.14 K, x1 = 0.3001	1009.77
363.14 K, x1 = 0.5002	1000.22
363.14 K, x1 = 0.7002	993.263
363.14 K, x1 = 0.7998	990.621
363.14 K, x1 = 0.8998	988.594
363.15 K, x1 = 0.4001	1004.65
363.15 K, x1 = 0.5998	996.455
363.15 K, x1 = 1	986.471

OCCNCCO [diethanolamine] + C[S+](C)[O-]
Conditions	mass density [kg/m3]
293.14 K, x1 = 0.9002	1097.48
293.15 K, x1 = 0.1002	1098.86
293.15 K, x1 = 0.1999	1097.33
293.15 K, x1 = 0.2998	1096.58
293.15 K, x1 = 0.4001	1096.23
293.15 K, x1 = 0.5001	1096.24
293.15 K, x1 = 0.6	1096.29
293.15 K, x1 = 0.7002	1096.88
293.15 K, x1 = 0.8001	1097.24
293.15 K, x1 = 1	1097.61
303.14 K, x1 = 0.4001	1087.87
303.14 K, x1 = 0.9002	1090.69
303.15 K, x1 = 0.1002	1089.38
303.15 K, x1 = 0.1999	1088.26
303.15 K, x1 = 0.2998	1087.88
303.15 K, x1 = 0.5001	1088.23
303.15 K, x1 = 0.6	1088.59
303.15 K, x1 = 0.7002	1089.43
303.15 K, x1 = 0.8001	1090.11
303.15 K, x1 = 1	1091.17
313.14 K, x1 = 0.4001	1079.49
313.15 K, x1 = 0.1002	1079.89
313.15 K, x1 = 0.1999	1079.19
313.15 K, x1 = 0.2998	1079.18
313.15 K, x1 = 0.5001	1080.19
313.15 K, x1 = 0.6	1080.87
313.15 K, x1 = 0.7002	1081.97
313.15 K, x1 = 0.8001	1082.9
313.15 K, x1 = 0.9002	1083.77
313.15 K, x1 = 1	1084.6
323.14 K, x1 = 0.4001	1071.1
323.15 K, x1 = 0.1002	1070.39
323.15 K, x1 = 0.1999	1070.11
323.15 K, x1 = 0.2998	1070.46
323.15 K, x1 = 0.5001	1072.12
323.15 K, x1 = 0.6	1073.1
323.15 K, x1 = 0.7002	1074.48
323.15 K, x1 = 0.9002	1076.8
323.15 K, x1 = 1	1077.88
323.16 K, x1 = 0.8001	1075.68
333.14 K, x1 = 1	1071.11
333.15 K, x1 = 0.1002	1060.89
333.15 K, x1 = 0.1999	1061.01
333.15 K, x1 = 0.2998	1061.72
333.15 K, x1 = 0.4001	1062.67
333.15 K, x1 = 0.5001	1064.01
333.15 K, x1 = 0.6	1065.3
333.15 K, x1 = 0.7002	1066.94
333.15 K, x1 = 0.8001	1068.41
333.15 K, x1 = 0.9002	1069.78
343.14 K, x1 = 0.4001	1054.22
343.14 K, x1 = 0.9002	1062.69
343.14 K, x1 = 1	1064.25
343.15 K, x1 = 0.1002	1051.36
343.15 K, x1 = 0.1999	1051.9
343.15 K, x1 = 0.2998	1052.96
343.15 K, x1 = 0.5001	1055.86
343.15 K, x1 = 0.6	1057.43
343.15 K, x1 = 0.7002	1059.34
343.15 K, x1 = 0.8001	1061.08
353.14 K, x1 = 0.1999	1042.77
353.14 K, x1 = 0.5001	1047.65
353.14 K, x1 = 0.7002	1051.66
353.14 K, x1 = 0.9002	1055.5
353.14 K, x1 = 1	1057.31
353.15 K, x1 = 0.1002	1041.8
353.15 K, x1 = 0.2998	1044.16
353.15 K, x1 = 0.4001	1045.72
353.15 K, x1 = 0.6	1049.5
353.15 K, x1 = 0.8001	1053.64
363.14 K, x1 = 0.1002	1032.21
363.14 K, x1 = 0.1999	1033.59
363.14 K, x1 = 0.2998	1035.35
363.14 K, x1 = 0.6	1041.5
363.14 K, x1 = 0.7002	1043.89
363.14 K, x1 = 0.8001	1046.12
363.14 K, x1 = 0.9002	1048.21
363.15 K, x1 = 0.4001	1037.18
363.15 K, x1 = 0.5001	1039.38
363.15 K, x1 = 1	1050.24
